#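 Method: 48-hour compound exposure of cells in 96-well plates, five concentrations, linear interpolation of endpoints. GI50 marks 50% less growth.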 Active and inactive are the calls of the source. No stated cut-off is given here; in the data, active = GI50 up to about 1.1 µM and inactive = higher.
# Tests used:
# Test in all cases: DTP human tumour cell line panel, 48 h
# [1] = test system: 786-0
# [2] = test system: A498
# [3] = test system: A549
# [4] = test system: ACHN
# [5] = test system: CAKI-1
# [6] = test system: CCRF-CEM
# [7] = test system: COLO 205
# [8] = test system: DU-145
# [9] = test system: EKVX
# [10] = test system: HCT-116
# [11] = test system: HCT-15
# [12] = test system: HL-60
# [13] = test system: HOP-62
# [14] = test system: HOP-92
# [15] = test system: HT-29
# [16] = test system: Hs-578T
# [17] = test system: IGROV-1
# [18] = test system: K562
# [19] = test system: KM12
# [20] = test system: LOX IMVI
# [21] = test system: M14
# [22] = test system: MCF7
# [23] = test system: MDA-MB-231
# [24] = test system: MDA-MB-435
# [25] = test system: MDA-N
# [26] = test system: MOLT-4
# [27] = test system: Malme-3M
# [28] = test system: NCI-H226
# [29] = test system: NCI-H23
# [30] = test system: NCI-H460
# [31] = test system: NCI-H522
# [32] = test system: NCI/ADR-RES
# [33] = test system: OVCAR-3
# [34] = test system: OVCAR-4
# [35] = test system: OVCAR-5
# [36] = test system: OVCAR-8
# [37] = test system: PC-3
# [38] = test system: RPMI-8226
# [39] = test system: RXF 393
# [40] = test system: SF-268
# [41] = test system: SF-295
# [42] = test system: SF-539
# [43] = test system: SK-MEL-28
# [44] = test system: SK-MEL-2
# [45] = test system: SK-MEL-5
# [46] = test system: SN12C
# [47] = test system: SNB-19
# [48] = test system: SNB-75
# [49] = test system: SR
# [50] = test system: SW-620
# [51] = test system: T47D
# [52] = test system: TK-10
# [53] = test system: U-251
# [54] = test system: UACC-257
# [55] = test system: UACC-62
# [56] = test system: UO-31
# [57] = test system: HCC 2998
# [58] = test system: SK-OV-3
compound,measurement,setting,value
CCOC(=O)C(NC(=O)c1ccccc1)(Nc1ccc(S(=O)(=O)Nc2cc(C)nc(C)n2)cc1)C(F)(F)F (configuration not stated),GI50,[1],> 100 µM (inactive)
same,GI50,[2],14.7 µM (inactive)
same,GI50,[3],> 100 µM (inactive)
same,GI50,[4],> 100 µM (inactive)
same,GI50,[5],> 100 µM (inactive)
same,GI50,[6],> 100 µM (inactive)
same,GI50,[7],> 100 µM (inactive)
same,GI50,[8],> 100 µM (inactive)
same,GI50,[9],> 100 µM (inactive)
same,GI50,[10],> 100 µM (inactive)
same,GI50,[11],> 100 µM
same,GI50,[12],> 100 µM (inactive)
same,GI50,[13],> 100 µM (inactive)
same,GI50,[14],> 100 µM (inactive)
same,GI50,[15],> 100 µM (inactive)
same,GI50,[16],> 100 µM (inactive)
same,GI50,[17],> 100 µM (inactive)
same,GI50,[18],> 100 µM (inactive)
same,GI50,[19],> 100 µM (inactive)
same,GI50,[20],> 100 µM (inactive)
same,GI50,[21],> 100 µM (inactive)
same,GI50,[22],> 100 µM (inactive)
same,GI50,[23],> 100 µM (inactive)
same,GI50,[24],> 100 µM (inactive)
same,GI50,[25],> 100 µM (inactive)
same,GI50,[26],> 100 µM (inactive)
same,GI50,[27],> 100 µM (inactive)
same,GI50,[28],> 100 µM (inactive)
same,GI50,[29],> 100 µM (inactive)
same,GI50,[30],> 100 µM (inactive)
same,GI50,[31],> 100 µM (inactive)
same,GI50,[32],> 100 µM (inactive)
same,GI50,[33],> 100 µM (inactive)
same,GI50,[34],> 100 µM (inactive)
same,GI50,[35],> 100 µM (inactive)
same,GI50,[36],> 100 µM (inactive)
same,GI50,[37],> 100 µM (inactive)
same,GI50,[38],> 100 µM (inactive)
same,GI50,[39],> 100 µM (inactive)
same,GI50,[40],> 100 µM (inactive)
same,GI50,[41],> 100 µM (inactive)
same,GI50,[42],> 100 µM (inactive)
same,GI50,[43],> 100 µM (inactive)
same,GI50,[44],> 100 µM (inactive)
same,GI50,[45],> 100 µM (inactive)
same,GI50,[46],> 100 µM (inactive)
same,GI50,[47],> 100 µM (inactive)
same,GI50,[48],> 100 µM (inactive)
same,GI50,[49],> 100 µM (inactive)
same,GI50,[50],56.1 µM (inactive)
same,GI50,[51],> 100 µM (inactive)
same,GI50,[52],> 100 µM (inactive)
same,GI50,[53],> 100 µM (inactive)
same,GI50,[54],> 100 µM (inactive)
same,GI50,[55],> 100 µM (inactive)
same,GI50,[56],> 100 µM (inactive)
CCOC(=O)C1(C(=O)OCC)COS(=O)OC1,GI50,[2],> 100 µM (inactive)
same,GI50,[3],> 100 µM (inactive)
same,GI50,[4],32.6 µM (inactive)
same,GI50,[6],10.6 µM (inactive)
same,GI50,[7],23.8 µM (inactive)
same,GI50,[8],> 100 µM (inactive)
same,GI50,[57],47.6 µM (inactive)
same,GI50,[10],17.4 µM (inactive)
same,GI50,[11],19.2 µM
same,GI50,[14],12.6 µM (inactive)
same,GI50,[15],> 100 µM (inactive)
same,GI50,[16],83.6 µM (inactive)
same,GI50,[18],21.4 µM (inactive)
same,GI50,[19],28.7 µM (inactive)
same,GI50,[20],13.2 µM (inactive)
same,GI50,[21],> 100 µM (inactive)
same,GI50,[22],19.1 µM (inactive)
same,GI50,[23],16.9 µM (inactive)
same,GI50,[24],36.7 µM (inactive)
same,GI50,[25],35.5 µM (inactive)
same,GI50,[26],16.4 µM (inactive)
same,GI50,[28],20.8 µM (inactive)
same,GI50,[29],49.7 µM (inactive)
same,GI50,[30],21.3 µM (inactive)
same,GI50,[31],0.604 µM (active)
same,GI50,[32],40 µM (inactive)
same,GI50,[33],19.9 µM (inactive)
same,GI50,[34],20.7 µM (inactive)
same,GI50,[36],45.1 µM (inactive)
same,GI50,[37],> 100 µM (inactive)
same,GI50,[39],18.3 µM (inactive)
same,GI50,[40],> 10 µM (inactive)
same,GI50,[41],> 100 µM (inactive)
same,GI50,[43],35.1 µM (inactive)
same,GI50,[45],35.6 µM (inactive)
same,GI50,[58],> 100 µM (inactive)
same,GI50,[46],> 100 µM (inactive)
same,GI50,[47],> 100 µM (inactive)
same,GI50,[48],79.1 µM (inactive)
same,GI50,[49],17.8 µM (inactive)
same,GI50,[50],18.6 µM (inactive)
same,GI50,[51],19.9 µM (inactive)
same,GI50,[52],> 100 µM (inactive)
same,GI50,[53],> 100 µM (inactive)
same,GI50,[54],> 100 µM (inactive)
same,GI50,[56],70.3 µM (inactive)
C=CCNc1ccc(C)cc1,GI50,[2],3.82 µM (inactive)
same,GI50,[3],> 100 µM (inactive)
same,GI50,[4],> 100 µM (inactive)
same,GI50,[6],> 100 µM (inactive)
same,GI50,[7],> 100 µM (inactive)
same,GI50,[8],> 100 µM (inactive)
same,GI50,[57],> 100 µM (inactive)
same,GI50,[10],> 100 µM (inactive)
same,GI50,[11],> 100 µM
same,GI50,[14],> 100 µM (inactive)
same,GI50,[15],> 100 µM (inactive)
same,GI50,[16],> 100 µM (inactive)
same,GI50,[18],> 100 µM (inactive)
same,GI50,[19],> 100 µM (inactive)
same,GI50,[20],> 100 µM (inactive)
same,GI50,[21],> 100 µM (inactive)
same,GI50,[22],> 100 µM (inactive)
same,GI50,[23],> 100 µM (inactive)
same,GI50,[24],> 100 µM (inactive)
same,GI50,[25],> 100 µM (inactive)
same,GI50,[26],> 100 µM (inactive)
same,GI50,[28],> 100 µM (inactive)
same,GI50,[29],> 100 µM (inactive)
same,GI50,[30],> 100 µM (inactive)
same,GI50,[31],> 100 µM (inactive)
same,GI50,[32],> 100 µM (inactive)
same,GI50,[33],> 100 µM (inactive)
same,GI50,[34],> 100 µM (inactive)
same,GI50,[36],> 100 µM (inactive)
same,GI50,[37],> 100 µM (inactive)
same,GI50,[39],> 100 µM (inactive)
same,GI50,[40],> 100 µM (inactive)
same,GI50,[41],> 100 µM (inactive)
same,GI50,[43],> 100 µM (inactive)
same,GI50,[45],> 100 µM (inactive)
same,GI50,[46],> 100 µM (inactive)
same,GI50,[47],> 100 µM (inactive)
same,GI50,[48],> 100 µM (inactive)
same,GI50,[49],> 100 µM (inactive)
same,GI50,[50],> 100 µM (inactive)
same,GI50,[51],> 100 µM (inactive)
same,GI50,[52],> 100 µM (inactive)
same,GI50,[53],> 100 µM (inactive)
same,GI50,[54],> 100 µM (inactive)
same,GI50,[56],35 µM (inactive)

# Reference: ChEMBL document CHEMBL1201862, “PubChem BioAssay data set” (2004)
